Values quoted from earlier work in patent US11413271B2, “Oral eliglustat transmucosal delivery system” (ABON PHARMACEUTICALS LLC., priority 2018, dated 2022).

For `CCCCCCCC(=O)N[C@H](CN1CCCC1)[C@H](O)c1ccc2c(c1)OCCO2` [eliglustat], the “Bioavailability in EMs (estimated)” value (CYP2D6 extensive metabolizers) is listed as “about 4.17%” and the “Increase of systemic exposure (AUC0-12) at steady state compared to after the first dose (AUC0-∞)” value (multiple oral doses of 84 mg twice daily in EMs) is listed as “up to 2 fold”.
